Reference: patent US9249110B2, “Substituted quinoxalines as B-raf kinase inhibitors” (NEUPHARMA, INC., priority 2011, dated 2016)
pIC50: −log10 of the molar value.

Tests used:
[1] = biological target: T1, BRAF (Homo sapiens, UniProt P15056); experiment: Z′-LYTE kinase inhibition assay against BRAF (Invitrogen); assay type: biochemical; conditions: 1 μM compound, Z′-LYTE method
T1 construct: purchased Invitrogen
Experimental: (§1) Inhibitory activities of compounds against BRAF or BRAF V600E were measured by Invitrogen using Z′-LYTE® Method as briefly described in the following.
(§2) 4× Test compounds are dissolved in 1% DMSO. […] ATP solutions are diluted to a 4×ATP working concentration in Kinase Buffer (50 mM HEPES pH 7.5, 0.01% BRIJ-35, 10 mM MgCl2, 1 mM EGTA).
(§3) Reaction starts by 30-second shaking of mixture consisting of 2.5 μL4× test compound, […] and 2.5 μL 4×ATP Solution on Bar-coded Corning, low volume NBS, black 384-well plate (Corning Cat. #3676). Then the mixture is incubated for 60-minute at room temperature for the kinase reaction, followed by addition of 5 μL of a 1:1024 dilution of development reagent A and 30-second plate shake. The mixture is then incubated for another 60-minute at room temperature for development reaction. Finally fluorescence is read by plate reader.

[2] = biological target: T2, BRAF V600E (Homo sapiens, UniProt P15056, V600E); experiment: Z′-LYTE kinase inhibition assay against BRAF V600E (Invitrogen); assay type: biochemical; conditions: 1 μM compound, Z′-LYTE method
T2 construct: purchased Invitrogen
T2 sequence (P15056 whole entry V600E): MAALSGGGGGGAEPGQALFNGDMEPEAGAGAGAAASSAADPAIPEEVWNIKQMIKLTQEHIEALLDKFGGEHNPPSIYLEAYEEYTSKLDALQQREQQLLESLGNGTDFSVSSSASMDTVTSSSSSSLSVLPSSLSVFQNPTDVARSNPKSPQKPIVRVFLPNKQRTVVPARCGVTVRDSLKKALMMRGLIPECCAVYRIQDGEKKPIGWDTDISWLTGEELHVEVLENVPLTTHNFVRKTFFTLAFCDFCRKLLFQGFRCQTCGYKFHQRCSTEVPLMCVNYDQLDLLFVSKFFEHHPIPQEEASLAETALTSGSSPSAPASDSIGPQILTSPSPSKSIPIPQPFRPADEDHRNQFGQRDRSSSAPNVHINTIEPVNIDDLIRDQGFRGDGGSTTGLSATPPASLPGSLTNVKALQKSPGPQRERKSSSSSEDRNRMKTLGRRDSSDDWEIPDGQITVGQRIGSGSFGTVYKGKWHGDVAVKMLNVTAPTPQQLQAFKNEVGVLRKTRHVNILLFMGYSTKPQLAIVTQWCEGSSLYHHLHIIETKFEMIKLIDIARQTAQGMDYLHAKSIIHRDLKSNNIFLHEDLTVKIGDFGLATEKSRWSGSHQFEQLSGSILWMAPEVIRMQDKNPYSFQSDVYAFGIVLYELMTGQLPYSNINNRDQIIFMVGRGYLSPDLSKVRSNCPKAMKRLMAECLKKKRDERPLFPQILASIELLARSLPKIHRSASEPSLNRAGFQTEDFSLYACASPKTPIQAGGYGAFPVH
Experimental: as §1, §2, §3

[3] = system: A375 cells; experiment: Inhibition of cancer cell growth, MTT assay, A375 cells; assay type: cell-based; conditions: Homo sapiens, A-375, 72 h compound exposure
Experimental: (§4) Inhibition of cell growth by compounds was measured using MTT assay (Mosmann, T., Journal of Immunological Methods, 1983, 65, 55-63). Tumor cell lines were purchased from ATCC (American Type Culture Collection, Manassas, Va.). All cell lines were maintained in RPMI 1640 (Hyclone) supplemented with 10% fetal bovine serum (FBS, Hyclone), glutamine (2 mM, Hyclone), and antibiotics (penicillin 100 U/mL and streptomycin 50 μg/mL) at 37° C. in a humidified atmosphere of 5% CO2 in air. Taxol (as a positive control, Sigma) and compounds were dissolved in DMSO (Sigma), and the final concentration of DMSO in the medium was 1%. Tumor cells were plated in 96-well plates at densities of about 4000 cells/well of a 96-well plate and allowed to adhere/grow for 24 h. They were then treated with various concentrations of drug for 72 h. 3-(4,5-Dimethylthiazol-2-yl)-2,5-diphenyltetrazolium bromide (MTT, Sigma) was used to determine the number of viable cells at the time of compound addition and the number of cells remaining after 72 h compound exposure. The number of cells remaining after 72 h was compared to the number of viable cells at the time of compound addition by measuring the absorbance at 570 nm, allowing for the calculation of growth inhibition.
(§5) All concentrations of compounds were tested in triplicate and controls were averaged over 4 wells. IC50 was calculated by plotting the concentration of compound vs the percentage of inhibition in treated wells using GraphPad Prism 5. […] The scale utilized in Table 4 is as follows: +++ less than 1000 nM, ++ between 1000 and 5000 nM, and + greater than 5000 nM.

[4] = system: A549 cells; experiment: Inhibition of cancer cell growth, MTT assay, A549 cells; assay type: cell-based; conditions: Homo sapiens, 72 h compound exposure
Experimental: as §4, §5

[5] = biological target: T3, KDR (VEGFR2) (Homo sapiens, UniProt P35968); experiment: Z′-LYTE kinase inhibition assay against KDR (Invitrogen); assay type: biochemical; conditions: 1 μM compound, Z′-LYTE method
T3 construct: purchased Invitrogen
T3 sequence (P35968 20-1356): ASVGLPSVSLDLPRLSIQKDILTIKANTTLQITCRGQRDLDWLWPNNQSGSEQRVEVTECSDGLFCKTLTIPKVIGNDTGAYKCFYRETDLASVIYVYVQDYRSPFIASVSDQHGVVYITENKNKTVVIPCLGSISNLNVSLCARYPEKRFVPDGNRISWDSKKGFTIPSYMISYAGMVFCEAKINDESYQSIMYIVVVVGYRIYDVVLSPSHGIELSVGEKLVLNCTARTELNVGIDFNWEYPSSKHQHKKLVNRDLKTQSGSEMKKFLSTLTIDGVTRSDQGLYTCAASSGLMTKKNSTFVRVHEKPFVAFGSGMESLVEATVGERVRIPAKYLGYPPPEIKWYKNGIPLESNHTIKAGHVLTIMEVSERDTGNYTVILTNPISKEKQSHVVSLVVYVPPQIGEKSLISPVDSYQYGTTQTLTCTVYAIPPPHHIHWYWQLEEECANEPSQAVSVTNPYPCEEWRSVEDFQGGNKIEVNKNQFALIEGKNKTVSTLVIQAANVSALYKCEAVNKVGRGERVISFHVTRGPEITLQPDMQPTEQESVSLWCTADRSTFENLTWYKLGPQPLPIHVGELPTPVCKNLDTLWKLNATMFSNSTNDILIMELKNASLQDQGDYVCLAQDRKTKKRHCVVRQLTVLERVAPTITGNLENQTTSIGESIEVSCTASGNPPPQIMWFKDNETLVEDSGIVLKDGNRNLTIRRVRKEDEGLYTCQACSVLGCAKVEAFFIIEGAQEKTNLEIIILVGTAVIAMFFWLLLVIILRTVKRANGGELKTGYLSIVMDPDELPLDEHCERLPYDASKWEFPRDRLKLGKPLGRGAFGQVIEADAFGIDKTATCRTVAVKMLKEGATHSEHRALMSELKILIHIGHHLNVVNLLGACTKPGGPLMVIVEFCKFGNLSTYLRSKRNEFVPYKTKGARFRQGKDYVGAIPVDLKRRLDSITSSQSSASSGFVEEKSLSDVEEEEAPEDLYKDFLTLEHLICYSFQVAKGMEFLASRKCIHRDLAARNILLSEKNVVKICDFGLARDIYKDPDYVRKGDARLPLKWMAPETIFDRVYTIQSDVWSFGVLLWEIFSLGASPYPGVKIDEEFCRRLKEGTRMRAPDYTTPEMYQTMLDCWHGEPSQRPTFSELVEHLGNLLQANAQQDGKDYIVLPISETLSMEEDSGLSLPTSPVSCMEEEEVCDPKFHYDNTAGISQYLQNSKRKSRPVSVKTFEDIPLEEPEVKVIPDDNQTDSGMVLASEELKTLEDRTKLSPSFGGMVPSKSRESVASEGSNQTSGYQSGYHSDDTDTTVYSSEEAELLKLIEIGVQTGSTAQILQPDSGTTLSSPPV
Experimental: Inhibitory activities of compounds against KDR (VEGFR2) were also measured by Invitrogen using Z′-LYTE® Method as described above with the following modification. The 2×KDR (VEGFR2)/Tyr 01 mixture is prepared in 50 mM HEPES pH 7.5, 0.01% BRIJ-35, 10 mM MgCl2, 1 mM EGTA. The final 10 μL Kinase Reaction consists of 0.5-11.7 ng KDR (VEGFR2) and 2 μM Tyr 01 in 50 mM HEPES pH 7.5, 0.01% BRIJ-35, 10 mM MgCl2, 1 mM EGTA. After the 1 hour Kinase Reaction incubation, 5 μL of a 1:256 dilution of Development Reagent B is added. […] The scale utilized in Table 3 is as follows: ++ more than 70% inhibition and + less than 70% inhibition.

T1 sequence (P15056 whole entry): as the sequence (P15056 whole entry V600E) above, with E600V counted along it

SMILES | inhibition at 1 µM [1] [%] | inhibition at 1 µM [2] [%] | pIC50 [3] | pIC50 [4] | inhibition at 1 µM [5] [%]
CCCS(=O)(=O)Nc1ccc(F)c(C(=O)c2ccc3nccnc3c2)c1F [Compound C01, N-(2,4-difluoro-3-(quinoxaline-6-carbonyl)phenyl)propane-1-sulfonamide] | 70 to 89 | > 89 | > 6.00 | > 6.00 | –
CCCS(=O)(=O)Nc1ccc(F)c(C(=O)c2ccc3ncc(-c4ccc(Cl)cc4)nc3c2)c1F [Compound C02, N-(3-(3-(4-chlorophenyl)quinoxaline-6-carbonyl)-2,4-difluorophenyl)propane-1-sulfonamide] | 70 to 89 | > 89 | > 6.00 | > 6.00 | –
CCCS(=O)(=O)Nc1ccc(F)c(C(=O)c2ccc3ncc(OC)nc3c2)c1F [Compound C03, N-(2,4-difluoro-3-(3-methoxyquinoxaline-6-carbonyl)phenyl)propane-1-sulfonamide] | 70 to 89 | > 89 | 5.30 to 6.00 | 5.30 to 6.00 | –
CCCS(=O)(=O)Nc1ccc(F)c(C(=O)c2ccc3ncc(C#N)nc3c2)c1F [Compound C04, N-(3-(3-cyanoquinoxaline-6-carbonyl)-2,4-difluorophenyl)propane-1-sulfonamide] | 70 to 89 | > 89 | > 6.00 | > 6.00 | –
CCCS(=O)(=O)Nc1ccc(F)c(C(=O)c2ccc3ncc(N4CCOCC4)nc3c2)c1F [Compound C05, N-(2,4-difluoro-3-(3-morpholinoquinoxaline-6-carbonyl)phenyl)propane-1-sulfonamide] | – | – | 5.30 to 6.00 | – | –
O=C(Nc1cccc(C(F)(F)F)c1)Nc1ccc(F)c(C(=O)c2ccc3nccnc3c2)c1F [Compound C06, 1-(2,4-difluoro-3-(quinoxaline-6-carbonyl)phenyl)-3-(3-(trifluoromethyl)phenyl)urea] | – | 70 to 89 | < 5.30 | < 5.30 | < 70
O=C(Nc1cccc(F)c1)Nc1ccc(F)c(C(=O)c2ccc3nccnc3c2)c1F [Compound C07, 1-(2,4-difluoro-3-(quinoxaline-6-carbonyl)phenyl)-3-(3-fluorophenyl)urea] | – | 70 to 89 | < 5.30 | 5.30 to 6.00 | < 70
O=C(Nc1ccc(Cl)c(C(F)(F)F)c1)Nc1ccc(F)c(C(=O)c2ccc3nccnc3c2)c1F [Compound C08, 1-(4-chloro-3-(trifluoromethyl)phenyl)-3-(2,4-difluoro-3-(quinoxaline-6-carbonyl)phenyl)urea] | – | < 70 | 5.30 to 6.00 | < 5.30 | < 70
O=C(Nc1ccc(F)c(C(=O)c2ccc3nccnc3c2)c1F)c1cccc(F)c1 [Compound C09, N-(2,4-difluoro-3-(quinoxaline-6-carbonyl)phenyl)-3-fluorobenzamide] | – | 70 to 89 | < 5.30 | < 5.30 | –
O=C(Nc1ccc(F)c(C(=O)c2ccc3nccnc3c2)c1F)c1cccc(C(F)(F)F)c1 [Compound C10, N-(2,4-difluoro-3-(quinoxaline-6-carbonyl)phenyl)-3-(trifluoromethyl)benzamide] | – | 70 to 89 | < 5.30 | < 5.30 | > 70
